# In ChEMBL document CHEMBL1133231, “Syntheses and binding affinities of 6-nitroquipazine analogues for serotonin transporter. Part 1” (Bioorg Med Chem Lett, 2000):
# Target: Sodium-dependent serotonin transporter (Rattus norvegicus, UniProt P31652)
# Experiment: Inhibition of [3H]citalopram binding to Serotonin transporter of rat cerebral cortex
# Assay type: tissue-based
# Chain of Sodium-dependent serotonin transporter (P31652 whole entry): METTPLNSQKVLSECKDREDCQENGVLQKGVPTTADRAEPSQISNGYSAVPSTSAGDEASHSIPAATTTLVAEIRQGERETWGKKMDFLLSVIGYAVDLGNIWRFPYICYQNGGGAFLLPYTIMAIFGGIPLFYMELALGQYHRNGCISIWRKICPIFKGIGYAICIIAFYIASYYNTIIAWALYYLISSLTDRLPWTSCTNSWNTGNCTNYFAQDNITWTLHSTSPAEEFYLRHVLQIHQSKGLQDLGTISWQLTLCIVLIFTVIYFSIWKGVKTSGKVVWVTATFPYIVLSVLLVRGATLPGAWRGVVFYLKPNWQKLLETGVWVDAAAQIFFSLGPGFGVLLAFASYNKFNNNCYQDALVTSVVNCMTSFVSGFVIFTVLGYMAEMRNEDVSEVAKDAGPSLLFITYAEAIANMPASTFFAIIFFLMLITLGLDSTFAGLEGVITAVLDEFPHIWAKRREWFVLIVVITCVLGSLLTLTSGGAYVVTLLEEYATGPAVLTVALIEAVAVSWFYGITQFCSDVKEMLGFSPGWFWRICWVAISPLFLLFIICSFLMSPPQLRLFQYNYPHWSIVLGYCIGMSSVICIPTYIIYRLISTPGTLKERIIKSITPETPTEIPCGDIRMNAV
row,Compound,Ki [nM]
1,O=[N+]([O-])c1cc([N+](=O)[O-])c2nc(N3CCNCC3)ccc2c1,313
2,NCCNc1ccc2cc([N+](=O)[O-])ccc2n1,164
3,c1ccc2nc(N3CCNCC3)ccc2c1 [QUIPAZINE],63
